*1 amine or outer side, *2 acyl side, *3 side chain or, on linkers, in order; H or OH if unused. Where a SMILES comes first, the peptide text is derived from it. Bridges are numbered along the chain shown (N, C = ends). [ ]: non-standard residue; d: D form. The star is where a group is joined. NH(1-deoxy-D-glucityl) = OC[C@@H](O)[C@@H](O)[C@H](O)[C@@H](O)CN*; DOTA = O=C(O)CN1CCN(CC(=O)O)CCN(CC(=O)*)CCN(CC(=O)O)CC1; Trp(5-Cl) = N[C@@H](Cc1c[nH]c2ccc(Cl)cc12)C(=O)O; Pyridine(2,6-diCH2) = c1cc(C[*:1])nc(C[*:2])c1; Pro(4R-NH2) = N[C@H]1CN[C@H](C(=O)O)C1; Glutaryl = O=C(CCCC(=O)[*:2])[*:1]; PEG6 = NCCOCCOCCOCCOCCOCCOCCC(=O)O; X1 = O=C(CN1CCC(N[*:1])CC1)[*:2]; Suc = O=C(CCC(=O)[*:2])[*:1]; dDab = NCC[C@@H](N)C(=O)O; Api = NC1(C(=O)O)CCNCC1; Dab = NCC[C@H](N)C(=O)O; Thp = NC1(C(=O)O)CCOCC1; AEEA = NCCOCCOCC(=O)O

The test addresses T1, GIPR (CHO-K1-hGIPR cells) (Homo sapiens, UniProt P48546).
T1 construct: host or cells: CHO-K1
T1 sequence (P48546 22-466): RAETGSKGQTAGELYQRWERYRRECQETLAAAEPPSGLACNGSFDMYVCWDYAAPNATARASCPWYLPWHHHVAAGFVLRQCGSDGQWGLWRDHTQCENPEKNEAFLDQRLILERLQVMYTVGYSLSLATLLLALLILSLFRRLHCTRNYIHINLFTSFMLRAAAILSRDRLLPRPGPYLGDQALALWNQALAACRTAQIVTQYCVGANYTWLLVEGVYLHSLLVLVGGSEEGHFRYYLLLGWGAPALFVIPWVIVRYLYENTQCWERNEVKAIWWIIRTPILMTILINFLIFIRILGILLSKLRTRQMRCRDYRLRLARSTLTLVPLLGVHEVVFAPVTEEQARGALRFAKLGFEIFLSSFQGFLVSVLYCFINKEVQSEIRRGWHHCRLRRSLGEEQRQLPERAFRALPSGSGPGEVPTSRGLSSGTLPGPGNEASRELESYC
Briefly: FACS binding assay. To be noted: competition with 20 nM GIP-057, 4° C., 1 hour, read-out: pIC50 Category (converted). As to the method: In order to determine binding of compounds according to the present invention to GIPR-expressing cells, a FACS binding assay was established.
CHO-K1-hGIPR cells (GenScript Biotech, #M00486) were cultured in Ham's F12 medium (Sigma-Aldrich, #N4888) including 10% fetal calf serum (FCS), 2 mM L-glutamine, 100 U/mL penicillin, 100 μg/mL streptomycin, 200 μg/mL Zeocin and 100 μg/mL HygromycinB. Cells were detached with Accutase (Biolegend, #BLD-423201) and washed in FACS buffer (PBS including 1% FCS). Cells were diluted in FACS buffer to a final concentration of 500.000 cells per mL. 200 μL of the cell suspension were transferred to a u-shaped non-binding 96-well plate (Greiner) and cells were washed in ice-cold FACS buffer.
Cells were washed twice in FACS buffer. An additional incubation step with 1 μg/mL APC-Streptavidin (Miltenyi; #130-106-791) in 50 μL FACS buffer for 30 min on ice was performed followed by two washes with FACS buffer.
Cells were analyzed in an Attune NxT flow cytometer. Median fluorescence intensities (MFI) of the APC/Cy5-channel were calculated by Attune NxT software. MFI values were plotted against peptide concentration and four parameter logistic (4PL) curve fitting and EC50/pEC50 or IC50/pIC50 calculations were performed using ActivityBase software.
Regarding `CC[C@H](C)[C@@H]1NC(=O)[C@H](CC(C)C)NC(=O)C2(CCOCC2)NC(=O)[C@@H](NC(=O)[C@@H](CC(C)C)NC(=O)[C@H](CCC(=O)O)NC(=O)[C@@H]2C[C@@H](N)CN2C(=O)[C@H](Cc2c[nH]c3ccc(Cl)cc23)NC(=O)[C@H](Cc2c[nH]c3ccccc23)NC(=O)[C@H](CC(=O)O)NC(=O)[C@@H](CCC(=O)NC[C@H](O)[C@@H](O)[C@H](O)[C@H](O)CO)NC(=O)COCCOCCNC(=O)CN2CCN(CC(=O)O)CCN(CC(=O)O)CCN(CC(=O)O)CC2)CSCc2cccc(n2)CSC[C@@H](C(=O)NC2CCN(CC(=O)N[C@H](CCC(=O)NC[C@H](O)[C@@H](O)[C@H](O)[C@H](O)CO)C(N)=O)CC2)NC1=O` [GIP-018, DOTA-O2Oc-glu(AGLU)-Asp-Trp-5Clw-Tap-Glu-leu-[Cys(2Lut)-Thp-Leu-Ile-Cys]-APAc-glu(AGLU)-NH2] ({DOTA-AEEA}-[dE](NH(1-deoxy-D-glucityl))DW[Trp(5-Cl)][Pro(4R-NH2)]E[dL]C[Thp]LIC[X1][dE](NH(1-deoxy-D-glucityl))-NH2; linker 8-12 via Pyridine(2,6-diCH2)), the IC50 was below 10 nM. As for `CC[C@H](C)[C@@H]1NC(=O)[C@H](CC(C)C)NC(=O)C2(CCOCC2)NC(=O)[C@@H](NC(=O)[C@@H](CC(C)C)NC(=O)[C@H](CCC(=O)O)NC(=O)[C@@H]2C[C@@H](N)CN2C(=O)[C@H](Cc2c[nH]c3ccc(Cl)cc23)NC(=O)[C@H](Cc2c[nH]c3ccccc23)NC(=O)[C@H](CC(=O)O)NC(=O)CCOCCOCCOCCOCCOCCOCCNC(=O)[C@@H](CCC(=O)NC[C@H](O)[C@@H](O)[C@H](O)[C@H](O)CO)NC(=O)CN2CCN(CC(=O)O)CCN(CC(=O)O)CCN(CC(=O)O)CC2)CSCc2cccc(n2)CSC[C@@H](C(=O)NC2CCN(CC(=O)N[C@H](CCC(=O)NC[C@H](O)[C@@H](O)[C@H](O)[C@H](O)CO)C(N)=O)CC2)NC1=O` [GIP-019, DOTA-glu(AGLU)-PEG6-Asp-Trp-5Clw-Tap-Glu-leu-[Cys(2Lut)-Thp-Leu-Ile-Cys]-APAc-glu(AGLU)-NH2] ({DOTA}-[dE](NH(1-deoxy-D-glucityl))[PEG6]DW[Trp(5-Cl)][Pro(4R-NH2)]E[dL]C[Thp]LIC[X1][dE](NH(1-deoxy-D-glucityl))-NH2; linker 9-13 via Pyridine(2,6-diCH2)), the IC50 is below 10 nM.

On to `CC[C@H](C)[C@@H]1NC(=O)[C@H](CC(C)C)NC(=O)C2(CCOCC2)NC(=O)[C@@H](NC(=O)[C@@H](CC(C)C)NC(=O)[C@H](CCC(=O)O)NC(=O)[C@@H]2C[C@@H](N)CN2C(=O)[C@H](Cc2c[nH]c3ccc(Cl)cc23)NC(=O)[C@H](Cc2c[nH]c3ccccc23)NC(=O)[C@H](CC(=O)O)NC(=O)COCCOCCNC(=O)[C@@H](CCC(=O)NC[C@H](O)[C@@H](O)[C@H](O)[C@H](O)CO)NC(=O)CN2CCN(CC(=O)O)CCN(CC(=O)O)CCN(CC(=O)O)CC2)CSCc2cccc(n2)CSC[C@@H](C(=O)NC2CCN(CC(=O)N[C@H](CCC(=O)NC[C@H](O)[C@@H](O)[C@H](O)[C@H](O)CO)C(N)=O)CC2)NC1=O` [GIP-020, DOTA-glu(AGLU)-O2Oc-Asp-Trp-5Clw-Tap-Glu-leu-[Cys(2Lut)-Thp-Leu-Ile-Cys]-APAc-glu(AGLU)-NH2] ({DOTA}-[dE](NH(1-deoxy-D-glucityl))[AEEA]DW[Trp(5-Cl)][Pro(4R-NH2)]E[dL]C[Thp]LIC[X1][dE](NH(1-deoxy-D-glucityl))-NH2; linker 9-13 via Pyridine(2,6-diCH2)), for which the IC50 is below 10 nM. `CC[C@H](C)[C@@H]1NC(=O)[C@H](CC(C)C)NC(=O)C2(CCN(C(=O)CN3CCN(CC(=O)O)CCN(CC(=O)O)CCN(CC(=O)O)CC3)CC2)NC(=O)[C@@H](NC(=O)[C@@H](CC(C)C)NC(=O)[C@H](CCC(=O)O)NC(=O)[C@@H]2C[C@@H](N)CN2C(=O)[C@H](Cc2c[nH]c3ccc(Cl)cc23)NC(=O)[C@H](Cc2c[nH]c3ccccc23)NC(=O)CCC(=O)O)CSCc2cccc(n2)CSC[C@@H](C(=O)NC2CCN(CC(=O)N[C@H](CCC(=O)NC[C@H](O)[C@@H](O)[C@H](O)[C@H](O)CO)C(N)=O)CC2)NC1=O` [GIP-023, HO-Succinyl-Trp-5Clw-Tap-Glu-leu-[Cys(2Lut)-Apc(DOTA)-Leu-Ile-Cys]-APAc-glu(AGLU)-NH2] (Suc-W[Trp(5-Cl)][Pro(4R-NH2)]E[dL]C[Api](DOTA)LIC[X1][dE](NH(1-deoxy-D-glucityl))-NH2; linker 6-10 via Pyridine(2,6-diCH2)): the IC50 is below 10 nM.

As for `CC[C@H](C)[C@@H]1NC(=O)[C@H](CC(C)C)NC(=O)[C@H](CCCCNC(=O)CN2CCN(CC(=O)O)CCN(CC(=O)O)CCN(CC(=O)O)CC2)NC(=O)[C@@H](NC(=O)[C@@H](CC(C)C)NC(=O)[C@H](CCC(=O)O)NC(=O)[C@@H]2C[C@@H](N)CN2C(=O)[C@H](Cc2c[nH]c3ccc(Cl)cc23)NC(=O)[C@H](Cc2c[nH]c3ccccc23)NC(=O)[C@H](CC(=O)O)NC(=O)CCCC(=O)NC[C@H](O)[C@@H](O)[C@H](O)[C@H](O)CO)CSCc2cccc(n2)CSC[C@@H](C(=O)NC2CCN(CC(=O)N[C@H](CCC(=O)NC[C@H](O)[C@@H](O)[C@H](O)[C@H](O)CO)C(N)=O)CC2)NC1=O` [GIP-024, AGLU-Glutar-Asp-Trp-5Clw-Tap-Glu-leu-[Cys(2Lut)-Lys(DOTA)-Leu-Ile-Cys]-APAc-glu(AGLU)-NH2] ({NH(1-deoxy-D-glucityl)-Glutaryl}-DW[Trp(5-Cl)][Pro(4R-NH2)]E[dL]CK(DOTA)LIC[X1][dE](NH(1-deoxy-D-glucityl))-NH2; linker 7-11 via Pyridine(2,6-diCH2)), the IC50 was below 10 nM. As for `CC[C@H](C)[C@@H]1NC(=O)[C@H](CC(C)C)NC(=O)[C@@H](CCCCNC(=O)CN2CCN(CC(=O)O)CCN(CC(=O)O)CCN(CC(=O)O)CC2)NC(=O)[C@@H](NC(=O)[C@@H](CC(C)C)NC(=O)[C@H](CCC(=O)O)NC(=O)[C@@H]2C[C@@H](N)CN2C(=O)[C@H](Cc2c[nH]c3ccc(Cl)cc23)NC(=O)[C@H](Cc2c[nH]c3ccccc23)NC(=O)[C@H](CC(=O)O)NC(=O)CCCC(=O)NC[C@H](O)[C@@H](O)[C@H](O)[C@H](O)CO)CSCc2cccc(n2)CSC[C@@H](C(=O)NC2CCN(CC(=O)N[C@H](CCC(=O)NC[C@H](O)[C@@H](O)[C@H](O)[C@H](O)CO)C(N)=O)CC2)NC1=O` [GIP-025, AGLU-Glutar-Asp-Trp-5Clw-Tap-Glu-leu-[Cys(2Lut)-lys(DOTA)-Leu-Ile-Cys]-APAc-glu(AGLU)-NH2] ({NH(1-deoxy-D-glucityl)-Glutaryl}-DW[Trp(5-Cl)][Pro(4R-NH2)]E[dL]C[dK](DOTA)LIC[X1][dE](NH(1-deoxy-D-glucityl))-NH2; linker 7-11 via Pyridine(2,6-diCH2)), the IC50 is 10 to 79.4 nM.

Take `CC[C@H](C)[C@@H]1NC(=O)[C@H](CC(C)C)NC(=O)[C@H](CCNC(=O)CN2CCN(CC(=O)O)CCN(CC(=O)O)CCN(CC(=O)O)CC2)NC(=O)[C@@H](NC(=O)[C@@H](CC(C)C)NC(=O)[C@H](CCC(=O)O)NC(=O)[C@@H]2C[C@@H](N)CN2C(=O)[C@H](Cc2c[nH]c3ccc(Cl)cc23)NC(=O)[C@H](Cc2c[nH]c3ccccc23)NC(=O)[C@H](CC(=O)O)NC(=O)CCCC(=O)NC[C@H](O)[C@@H](O)[C@H](O)[C@H](O)CO)CSCc2cccc(n2)CSC[C@@H](C(=O)NC2CCN(CC(=O)N[C@H](CCC(=O)NC[C@H](O)[C@@H](O)[C@H](O)[C@H](O)CO)C(N)=O)CC2)NC1=O` [GIP-026, AGLU-Glutar-Asp-Trp-5Clw-Tap-Glu-leu-[Cys(2Lut)-Dab(DOTA)-Leu-Ile-Cys]-APAc-glu(AGLU)-NH2] ({NH(1-deoxy-D-glucityl)-Glutaryl}-DW[Trp(5-Cl)][Pro(4R-NH2)]E[dL]C[Dab](DOTA)LIC[X1][dE](NH(1-deoxy-D-glucityl))-NH2; linker 7-11 via Pyridine(2,6-diCH2)): the IC50 is below 10 nM. On to `CC[C@H](C)[C@@H]1NC(=O)[C@H](CC(C)C)NC(=O)[C@@H](CCNC(=O)CN2CCN(CC(=O)O)CCN(CC(=O)O)CCN(CC(=O)O)CC2)NC(=O)[C@@H](NC(=O)[C@@H](CC(C)C)NC(=O)[C@H](CCC(=O)O)NC(=O)[C@@H]2C[C@@H](N)CN2C(=O)[C@H](Cc2c[nH]c3ccc(Cl)cc23)NC(=O)[C@H](Cc2c[nH]c3ccccc23)NC(=O)[C@H](CC(=O)O)NC(=O)CCCC(=O)NC[C@H](O)[C@@H](O)[C@H](O)[C@H](O)CO)CSCc2cccc(n2)CSC[C@@H](C(=O)NC2CCN(CC(=O)N[C@H](CCC(=O)NC[C@H](O)[C@@H](O)[C@H](O)[C@H](O)CO)C(N)=O)CC2)NC1=O` [GIP-027, AGLU-Glutar-Asp-Trp-5Clw-Tap-Glu-leu-[Cys(2Lut)-dab(DOTA)-Leu-Ile-Cys]-APAc-glu(AGLU)-NH2] ({NH(1-deoxy-D-glucityl)-Glutaryl}-DW[Trp(5-Cl)][Pro(4R-NH2)]E[dL]C[dDab](DOTA)LIC[X1][dE](NH(1-deoxy-D-glucityl))-NH2; linker 7-11 via Pyridine(2,6-diCH2)), for which the IC50 is 10 to 79.4 nM.

The values are drawn from patent publication US20250296971A1, “GASTRIC INHIBITORY PEPTIDE RECEPTOR LIGANDS” (priority 2021, published 2025).
